Target: T1, human mAChR M1 (Homo sapiens, UniProt P11229)
T1 construct: host or cells: CHO-K1 (ATCC), stably transfected using Lipofectamine 2000
T1 sequence (P11229 1-460): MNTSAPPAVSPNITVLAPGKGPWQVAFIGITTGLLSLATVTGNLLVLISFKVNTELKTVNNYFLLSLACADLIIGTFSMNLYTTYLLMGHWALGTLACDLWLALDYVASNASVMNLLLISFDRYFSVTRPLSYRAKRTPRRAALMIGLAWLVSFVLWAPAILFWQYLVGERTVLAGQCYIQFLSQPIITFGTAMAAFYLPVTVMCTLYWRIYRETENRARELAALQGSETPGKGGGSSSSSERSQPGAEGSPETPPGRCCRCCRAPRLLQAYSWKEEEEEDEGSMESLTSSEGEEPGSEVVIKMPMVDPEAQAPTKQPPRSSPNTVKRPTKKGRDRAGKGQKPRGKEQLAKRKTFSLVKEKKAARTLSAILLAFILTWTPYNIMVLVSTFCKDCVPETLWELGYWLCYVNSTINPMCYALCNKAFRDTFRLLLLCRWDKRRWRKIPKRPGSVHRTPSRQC
Assay: mAChR M1 cell-based functional assay (calcium mobilization, Fluo-4, FDSS)
Conditions: CHO-K1 cells stably expressing hM1, calcium flux; for Emax: PAM mode with EC20 acetylcholine; for EC50: concentration-dependent increase in the EC20 acetylcholine response
Source text: Chinese hamster ovary (CHO-K1) cells stably expressing rat (r)M1 were purchased from the American Type Culture Collection and cultured according to their indicated protocol. CHO cells stably expressing human (h)M2, hM3, and hM5 were described previously (Levey, et al., 1991); hM1 and hM4 cDNAs were purchased from Missouri S&T cDNA Resource; rM4 cDNA was provided by T. I. Bonner (National Institutes of Health, Bethesda, Md.). rM2 and rM3 were cloned from a rat brain cDNA library and sequence verified. hM1, rM2, rM3, hM4, and rM4 cDNAs were used to stably transfect CHO-K1 cells purchased from the American Type Culture Collection using Lipofectamine 2000. To make stable rM2, hM2, rM3, hM4, and rM4 cell lines for use in calcium mobilization assays, these cells also were stably transfected with a chimeric G-protein (Gqi5) (provided by B. R. Conklin, University of California, San Francisco) using Lipofectamine 2000. rM1, hM1, rM3, hM3, rM5, and hM5 cells were grown in Ham's F-12 medium containing 10% heat-inactivated fetal bovine serum (FBS), 20 mM HEPES, and 50 µg/mL G418 sulfate. rM2-Gqi5, hM2-Gqi5, and hM4-Gqi5 cells were grown in the same medium also containing 500 μg/mL Hygromycin B. Stable rM4-Gqi5 cells were grown in DMEM containing 10% heat-inactivated FBS, 20 mM HEPES, 400 μg/mL G418 sulfate, and 500 μg/mL Hygromycin B.
For high throughput measurement of agonist-evoked increases in intracellular calcium, CHO-K1 cells stably expressing muscarinic receptors were plated in growth medium lacking G418 and hygromycin at 15,000 cells/20 μL/well in Greiner 384-well black-walled, tissue culture (TC)-treated, clear-bottom plates (VWR). Cells were incubated overnight at 37° C. and 5% CO2. The next day, cells were washed using an ELX 405 (BioTek) with four washes ([…]) of assay buffer then aspirated to 20 μL. Next, 20 μL of 16 μM Fluo-4/acetoxymethyl ester (Invitrogen, Carlsbad, Calif.) prepared as a 2.3 mM stock in DMSO and mixed in a 1:1 ratio with 10% (w/v) Pluronic F-127 and diluted in assay buffer was added to the wells and the cell plates were incubated for 50 min at 37° C. and 5% CO2. Dye was removed by washing with the ELX 405 (four 80 μL washes of assay buffer) then aspirated to 20 μL. Compound master plates were formatted in an 11 point CRC format (1:3 dilutions) in 100% DMSO with a starting concentration of 10 mM using the BRAVO liquid handler (Agilent). Test compound CRCs were then transferred to daughter plates (240 nL) using the Echo acoustic plate reformatter (Labcyte, Sunnyvale, Calif.) and then diluted into assay buffer (40 μL) to a 2× stock using a Thermo Fisher Combi (Thermo Fisher Scientific, Waltham, Mass.).
Calcium flux was measured using the Functional Drug Screening System (FDSS) 6000 (Hamamatsu Corporation, Tokyo, Japan) as an increase in the fluorescent static ratio. Compounds were applied to cells (20 μL, 2×) using the automated system of the FDSS 6000 at 4 s into the 300 s protocol and the data were collected at 1 Hz. At 144 s into the 300s protocol, 10 μL of an EC20 concentration of the muscarinic receptor agonist acetylcholine was added (5×), followed by the addition of 12 μL an EC80 concentration of acetylcholine at the 230 s time point (5×). Agonist activity was analyzed as a concentration-dependent increase in calcium mobilization upon compound addition. Positive allosteric modulator activity was analyzed as a concentration-dependent increase in the EC20 acetylcholine response. Antagonist activity was analyzed as a concentration-dependent decrease in the EC80 acetylcholine response. Concentration-response curves were generated using a four-parameter logistical equation in XLfit curve fitting software (IDBS, Bridgewater, N.J.) for Excel (Microsoft, Redmond, Wash.) or Prism (GraphPad Software, Inc., San Diego, Calif.).
Activity (EC50 and Emax) was determined in the mAChR M1 cell-based functional assay as described above and the data are shown in Table 2. […]

Emax | EC50 | SMILES
70% | – | Cc1nn(C)cc1-c1ccc(CN2Cc3sccc3C2=O)c(F)c1 [Compound 43, 5-(4-(1,3-dimethyl-1H-pyrazol-4-yl)-2-fluorobenzyl)-5,6-dihydro-4H-thieno[2,3-c]pyrrol-4-one]
51% | 2.78 µM | Cn1cc2cc(-c3ccc(CN4Cc5sccc5C4=O)c(F)c3)ccc2n1 [Compound 44, 5-(2-fluoro-4-(2-methyl-2H-indazol-5-yl)benzyl)-5,6-dihydro-4H-thieno[2,3-c]pyrrol-4-one]
50% | 4.46 µM | O=C1c2ccsc2CN1Cc1ccc(-c2ccc3nccn3c2)cc1F [Compound 45, 5-(2-fluoro-4-(imidazo[1,2-a]pyridin-6-yl)benzyl)-5,6-dihydro-4H-thieno[2,3-c]pyrrol-4-one]
50% | – | Cn1cc(-c2ccc(CN3Cc4sccc4C3=O)cc2)cn1 [Compound 46, 5-(4-(1-methyl-1H-pyrazol-4-yl)benzyl)-5,6-dihydro-4H-thieno[2,3-c]pyrrol-4-one]
30% | – | O=C1c2ccsc2CN1Cc1ccc(-c2cscn2)cc1 [Compound 47, 5-(4-(thiazol-4-yl)benzyl)-5,6-dihydro-4H-thieno[2,3-c]pyrrol-4-one]
33% | – | Cn1cc(-c2ccc(CN3Cc4sccc4C3=O)cc2)nn1 [Compound 48, 5-(4-(1-methyl-1H-1,2,3-triazol-4-yl)benzyl)-5,6-dihydro-4H-thieno[2,3-c]pyrrol-4-one]
60% | 6.45 µM | Cn1cc2c(-c3cc(F)c(CN4Cc5ccn(CC6CCCO6)c5C4=O)c(F)c3)cccc2n1 (centres unmarked) [Compound 49, 5-(2,6-difluoro-4-(2-methyl-2H-indazol-4-yl)benzyl)-1-((tetrahydrofuran-2-yl)methyl)-4,5-dihydropyrrolo[3,4-b]pyrrol-6(1H)-one]
38% | 3.44 µM | Cn1cc(-c2cc(F)c(CN3Cc4ccn(CC5CCCO5)c4C3=O)c(F)c2)cn1 (centres unmarked) [Compound 50, 5-(2,6-difluoro-4-(1-methyl-1H-pyrazol-4-yl)benzyl)-1-((tetrahydrofuran-2-yl)methyl)-4,5-dihydropyrrolo[3,4-b]pyrrol-6(1H)-one]
51% | 3.45 µM | Cc1nn(C)cc1-c1cc(F)c(CN2Cc3ccn(CC4CCCO4)c3C2=O)c(F)c1 (centres unmarked) [Compound 51, 5-(4-(1,3-dimethyl-1H-pyrazol-4-yl)-2,6-difluorobenzyl)-1-((tetrahydrofuran-2-yl)methyl)-4,5-dihydropyrrolo[3,4-b]pyrrol-6(1H)-one]
33% | 2.15 µM | O=C1c2c(ccn2CC2CCCO2)CN1Cc1c(F)cc(-c2ccc3nccn3c2)cc1F (centres unmarked) [Compound 52, 5-(2,6-difluoro-4-(imidazo[1,2-a]pyridin-6-yl)benzyl)-1-((tetrahydrofuran-2-yl)methyl)-4,5-dihydropyrrolo[3,4-b]pyrrol-6(1H)-one]
63% | – | CCn1ccc2c1C(=O)N(Cc1c(F)cc(-c3cccc4nn(C)cc34)cc1F)C2 [Compound 53, 5-(2,6-difluoro-4-(2-methyl-2H-indazol-4-yl)benzyl)-1-ethyl-4,5-dihydropyrrolo[3,4-b]pyrrol-6(1H)-one]
69% | 5.58 µM | Cn1cc2c(-c3cc(F)c(CN4Cc5ccn(CCCO)c5C4=O)c(F)c3)cccc2n1 [Compound 54, 5-(2,6-difluoro-4-(2-methyl-2H-indazol-4-yl)benzyl)-1-(3-hydroxypropyl)-4,5-dihydropyrrolo[3,4-b]pyrrol-6(1H)-one]
59% | 8.98 µM | Cn1cc2c(-c3cc(F)c(CN4Cc5ccn(CC6CCOCC6)c5C4=O)c(F)c3)cccc2n1 [Compound 55, 5-(2,6-difluoro-4-(2-methyl-2H-indazol-4-yl)benzyl)-1-((tetrahydro-2H-pyran-4-yl)methyl)-4,5-dihydropyrrolo[3,4-b]pyrrol-6(1H)-one]
80% | 3.6 µM | Cn1cc2c(-c3cc(F)c(CN4Cc5occc5C4=O)c(F)c3)cccc2n1 [Compound 56, 5-(2,6-difluoro-4-(2-methyl-2H-indazol-4-yl)benzyl)-5,6-dihydro-4H-furo[2,3-c]pyrrol-4-one]
42% | 0.99 µM | Cn1cc2cc(-c3cc(F)c(CN4Cc5occc5C4=O)c(F)c3)ccc2n1 [Compound 57, 5-(2,6-difluoro-4-(2-methyl-2H-indazol-5-yl)benzyl)-5,6-dihydro-4H-furo[2,3-c]pyrrol-4-one]
78% | – | Cn1cc(-c2cc(F)c(CN3Cc4occc4C3=O)c(F)c2)cn1 [Compound 58, 5-(2,6-difluoro-4-(1-methyl-1H-pyrazol-4-yl)benzyl)-5,6-dihydro-4H-furo[2,3-c]pyrrol-4-one]
90% | – | Cc1nn(C)cc1-c1cc(F)c(CN2Cc3occc3C2=O)c(F)c1 [Compound 59, 5-(4-(1,3-dimethyl-1H-pyrazol-4-yl)-2,6-difluorobenzyl)-5,6-dihydro-4H-furo[2,3-c]pyrrol-4-one]
50% | – | Cn1cc2cccc(-c3cc(F)c(CN4Cc5occc5C4=O)c(F)c3)c2n1 [Compound 60, 5-(2,6-difluoro-4-(2-methyl-2H-indazol-7-yl)benzyl)-5,6-dihydro-4H-furo[2,3-c]pyrrol-4-one]
51% | – | Cc1[nH]cc2c1C(=O)N(Cc1c(F)cc(-c3cccc4nn(C)cc34)cc1F)C2 [Compound 61, 2-(2,6-difluoro-4-(2-methyl-2H-indazol-4-yl)benzyl)-6-methyl-3,5-dihydropyrrolo[3,4-c]pyrrol-1(2H)-one]
